Results on 19 compounds are retold here after patent publication US7423172B2 (Laboratorios Salvat, S.A., priority 2004, dated 2008).

One assay has as its target T1, GST-hPPARγ2 (Homo sapiens, UniProt P37231).
T1 construct: the complete cDNA of the human PPAR was cloned into pGEX4T2; made in house; host or cells: Escherichia coli BL21 (DE3)
T1 sequence (P37231 1-505): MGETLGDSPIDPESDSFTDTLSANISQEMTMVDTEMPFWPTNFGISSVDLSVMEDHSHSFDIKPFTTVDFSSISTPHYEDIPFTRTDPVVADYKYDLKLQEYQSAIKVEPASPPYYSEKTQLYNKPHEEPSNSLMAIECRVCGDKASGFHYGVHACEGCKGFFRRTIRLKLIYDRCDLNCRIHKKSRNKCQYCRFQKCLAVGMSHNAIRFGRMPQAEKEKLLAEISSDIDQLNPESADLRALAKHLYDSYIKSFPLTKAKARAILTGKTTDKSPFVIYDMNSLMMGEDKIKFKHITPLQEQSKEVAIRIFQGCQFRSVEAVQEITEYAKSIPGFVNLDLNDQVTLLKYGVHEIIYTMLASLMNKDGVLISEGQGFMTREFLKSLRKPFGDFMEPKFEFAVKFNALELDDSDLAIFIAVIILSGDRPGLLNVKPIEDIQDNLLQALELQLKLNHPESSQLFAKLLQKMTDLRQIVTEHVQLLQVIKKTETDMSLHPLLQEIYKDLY
The assay is described as follows: PPARγ2 binding assay ([3H]BRL-49853 displacement). The note with it: GST-hPPARγ2, [3H]BRL-49853 100 nM, 3 h at 4° C.; read-out: Affinity PPARγ. As for the experimental part: The cDNA encoding for the open reading frame of the hPPARγ2 was amplified by PCR (polymerase chain reaction) and inserted in the plasmid pGEX-4T-2. This construction (pGEX-hPPARγ) was introduced into E. coli where it was overexpressed and semipurified as a fusion protein with glutathione S-transferase (GST) (Elbrecht et al., J. Biol. Chem. 1999, 274, 7913-7922). The binding of the compounds to the GST-hPPARγ2 s was determined by modifications in the method described by Lehmann et al. (J. Biol. Chem. 1995, 270, 12953-12957). The receptors (2.5 μg) were incubated in 96-well plates in the presence or in the absence of the products with [^3H]BRL-49853 (100 nM) for 3 h at 4° C., in a final volume of 200 μL of buffer Tris-HCl 10 mM pH:8.0, containing KCl 50 mM and DTT 10 mM. Non-specific binding was determined in the presence of BRL49853 100 μM. The reaction mixture was transferred to a Multiscreen Durapore (Millipore) microplate containing glutathione-Sepharose 4B in every well. The reaction mixture was left to incubate with the resin during 10 min, and then centrifuged at 735 g during 2 min. To dissociate the receptor bound to the resin, reduced glutathione 10 mM is added and incubated during 10 min. The receptor was eluted by centrifugation. Then, scintillation liquid was added to the elution and the contained radioactivity was quantified by liquid scintillation spectroscopy (Microbeta Wallac, Perkin Elmer).
The human PPAR cDNA was amplified through RT-PCR. For hPPARγ2, RNA was obtained from human white adipose tissue. Each amplified fragment was cloned into pBluescript (Stratagene®) and sequenced. One clone for each construction was selected and used as template for further subcloning and PCR amplifications.
GST-Fused Protein Construction
To generate this chimeric protein, the complete cDNA of the human PPAR was cloned into pGEX4T2 (Amersham Biosciences). The fragment was obtained from the pBluescript-cDNAs clones digested with endonucleases. To assess the plasmid identity and to ensure the in-phase cloning of the proteins, pGEX construction was sequenced. GST-hPPARγ2 fusion protein was generated in Escherichia coli (BL21 strain DE3). Cells were cultured in LB medium to a density of A600=1.6 odu, and induced for overexpression by addition of isopropyl-1-thio-β-D-galactopyranoside (IPTG)-induced cultures to a final concentration of 0.5 mM. The IPTG-induced cultures were grown at room temperature o/n, before cells were harvested by centrifugation at 5000 g for 15 min. After sonication, the GST-fusion protein was purified from the cell pellet using glutathione-Sepharose beads, following the procedure recommended by the manufacturer (Amersham Pharmacia Biotech). Excess of gluthatione was removed o/n by dyalisis at 4° C. Receptor purity was visualized by SDS-PAGE and protein content was determined by Bradford method. Receptor aliquots were stored at −80° C. until use.

In assay [1] the target is T2, GAL4 DNA binding domain fused to the PPARγ LBD (Homo sapiens, UniProt P37231).
T2 construct: expressed in transfected cells; host or cells: COS-7
T2 sequence (P37231 238-503 limits assumed): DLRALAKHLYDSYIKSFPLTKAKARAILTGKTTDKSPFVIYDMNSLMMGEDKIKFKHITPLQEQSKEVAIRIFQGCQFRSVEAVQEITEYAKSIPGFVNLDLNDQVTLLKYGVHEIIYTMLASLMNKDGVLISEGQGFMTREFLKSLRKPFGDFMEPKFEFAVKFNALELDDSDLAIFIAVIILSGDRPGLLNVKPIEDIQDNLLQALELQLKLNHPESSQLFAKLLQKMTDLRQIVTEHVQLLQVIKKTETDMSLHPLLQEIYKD
The assay is described as follows: LBD-hPPARs transactivation assay (GAL4-luciferase reporter in COS-7 cells). Format: cell-based. Conditions: 48 h. The text has this:
LBD-hPPARs Transactivation Assay
COS-7 cells were cultivated in 24-well plates and transfected with the pFACMV plasmids that encode the chimeric proteins containing the GAL4 DNA binding domain fused to the PPARγ LBD. The reporter plasmid for the foregoing constructions was pFR-Luc, which contains five repetitions of the GAL4-response element in front of a promoter that controls the transcription of the luciferase gene. Lipofectamine was used as a transfection agent. The plasmids of the chimeric receptors and the reporter gene were inserted in the cells by transitory transfection in COS-7 cells in culture.

Consider `CCC(=O)N(CCOc1ccc(C[C@H](Nc2ccccc2C(=O)c2ccccc2)C(=O)O)cc1)c1ccc(Cl)cc1` [I_121], for which the Ki on GST-hPPARγ2 fell in the range of 500 to 1500 nM. The “Functional activity PPARγ” value in assay [1] is “ANTAGONIST”.

For `C=CC(=O)N(CCCOc1ccc(C[C@H](Nc2ccccc2C(=O)c2ccccc2)C(=O)O)cc1)c1ccc(Cl)cc1` [I_128, (S)-3-(4-{3-[Acryloyl-(4-chlorophenyl)-amino]propoxy}phenyl)-2-(2-benzoylphenylamino)propionic acid], at GST-hPPARγ2, the Ki fell in the range of 500 to 1500 nM. As to `Cc1ccc(N(CCOc2ccc(C[C@H](Nc3ccccc3C(=O)c3ccccc3)C(=O)O)cc2)C(=O)C(C)C)cc1` [I_149, (S)-2-(2-Benzoylphenylamino)-3-{4-[2-(isobutyryl-p-tolylamino)ethoxy]-phenyl}propionic acid], the Ki at GST-hPPARγ2 was more than 1500 nM. The same measure, in the same setting: in the case of `O=C(c1ccccc1)c1ccccc1N[C@@H](Cc1ccc(OCCCN(Cc2ccccc2)C(=O)C#Cc2ccccc2)cc1)C(=O)O` [I_178, (S)-2-(2-Benzoylphenylamino)-3-(4-{3-[benzyl-(3-phenylpropynoyl)amino]-propoxy}phenyl)propionic acid] it was less than 500 nM. For `O=C(c1ccccc1)c1ccccc1N[C@@H](Cc1ccc(OCCCN(Cc2ccccc2)C(=O)Cc2cccnc2)cc1)C(=O)O` [I_198, (S)-2-(2-Benzoylphenylamino)-3-(4-{3-[benzyl-(2-pyridin-3-ylacetyl)-amino]propoxy}phenyl)propionic acid], at GST-hPPARγ2, the Ki is 500 to 1500 nM. Further, the “Functional activity PPARγ” value in assay [1] was “PARTIAL AGONIST”. The corresponding values for `O=C(c1ccccc1)c1ccccc1N[C@@H](Cc1ccc(OCCCN(CC2CC2)C(=O)Cc2ccccc2)cc1)C(=O)O` [I_262, (S)-2-(2-Benzoylphenylamino)-3-{4-[3-(cyclopropylmethylphenylacetylamino)propoxy]phenyl}propionic acid] are less than 500 nM and “AGONIST”. The corresponding values for `O=C(c1ccccc1)c1ccccc1N[C@@H](Cc1ccc(OCCN(CC2CC2)C(=O)C=Cc2cccs2)cc1)C(=O)O` [I_265, (S)-2-(2-Benzoylphenylamino)-3-(4-{2-[cyclopropylmethyl-(3-thiophen-2-ylacryloyl)amino]ethoxy}phenyl)-propionic acid] are less than 500 nM and “AGONIST”. Consider `O=C(c1ccccc1)c1ccccc1N[C@@H](Cc1ccc(OCCCN(CC2CC2)C(=O)C2CCCC2)cc1)C(=O)O` [I_280, (S)-2-(2-Benzoylphenylamino)-3-{4-[3-(cyclopentanecarbonylcyclopropylmethylamino)propoxy]phenyl}propionic acid], for which, at GST-hPPARγ2, the Ki was less than 500 nM. Consider `O=C(c1ccccc1)c1ccccc1N[C@@H](Cc1ccc(OCCN(C(=O)c2cc3ccccc3cn2)c2ccccc2)cc1)C(=O)O` [I_303, (S)-2-(2-Benzoylphenylamino)-3-(4-{2-[(isoquinoline-3-carbonyl)-phenylamino]ethoxy}phenyl)propionic acid], for which the Ki on GST-hPPARγ2 was less than 500 nM.

For the compound `CC(C)(C)N(CCOc1ccc(C[C@H](Nc2ccccc2C(=O)c2ccccc2)C(=O)O)cc1)C(=O)C1CCC1` [I_375, (S)-2-(2-Benzoylphenylamino)-3-{4-[2-(tert-butylcyclobutanecarbonylamino)-ethoxy]phenyl}propionic acid], the Ki at GST-hPPARγ2 was less than 500 nM. Besides, the “Functional activity PPARγ” value in assay [1] is recorded as “PARTIAL AGONIST”.

Turning to `O=C(c1ccccc1)c1ccccc1N[C@@H](Cc1ccc(OCCN(Cc2ccccc2F)c2ccccc2Cl)cc1)C(=O)O` [I_379, (S)-2-(2-Benzoylphenylamino)-3-(4-{2-[(2-chlorophenyl)-(2-fluorobenzyl)-amino]ethoxy}phenyl)propionic acid], the Ki on GST-hPPARγ2 was in the range of 500 to 1500 nM. Same read-out and setting: in the case of `COc1cccc(CN(CCCOc2ccc(C[C@H](Nc3ccccc3C(=O)c3ccccc3)C(=O)O)cc2)c2ccccc2)c1` [I_391, (S)-2-(2-Benzoylphenylamino)-3-(4-{3-[(3-methoxybenzyl)phenylamino]-propoxy}phenyl)propionic acid] it was 500 to 1500 nM.

For the compound `Cc1cccc(N(CCCOc2ccc(C[C@H](Nc3ccccc3C(=O)c3ccccc3)C(=O)O)cc2)CC(C)C)c1` [I_410, (S)-2-(2-Benzoylphenylamino)-3-(4-{3-[isobutyl-m-tolylamino]propoxy}-phenyl)propionic acid], the Ki on GST-hPPARγ2 was less than 500 nM. Also, the “Functional activity PPARγ” value in assay [1] is recorded as “ANTAGONIST”. Take `Cc1ccccc1N(CCOc1ccc(C[C@H](Nc2ccccc2C(=O)c2ccccc2)C(=O)O)cc1)CC1CCC1` [I_412, (S)-2-(2-Benzoylphenylamino)-3-{4-[2-(cyclobutylmethyl-o-tolylamino)-ethoxy]phenyl}propionic acid]: the Ki on GST-hPPARγ2 is less than 500 nM. Consider `O=C(c1ccccc1)c1ccccc1N[C@@H](Cc1ccc(OCCCN(Cc2ccccc2)CC2CC2)cc1)C(=O)O` [I_418, (S)-2-(2-Benzoylphenylamino)-3-{4-[3-(benzylcyclopropylmethylamino)-propoxy]phenyl}propionic acid], for which the Ki on GST-hPPARγ2 was in the range of 500 to 1500 nM. In assay [1], the “Functional activity PPARγ” value is “PARTIAL AGONIST”. Consider `CC(=O)N(CCOc1ccc(C[C@H](Nc2ccccc2C(=O)c2ccccc2)C(=O)O)cc1)c1ccc2ccccc2c1` [I_438, (S)-3-{4-[2-(Acetylnaphthalen-2-ylamino)ethoxy]phenyl}-2-(2-benzoylphenylamino)propionic acid], for which the Ki at GST-hPPARγ2 is 500 to 1500 nM. As to `C/C=C/C(=O)N(CCOc1ccc(C[C@H](Nc2ccccc2C(=O)c2ccccc2)C(=O)O)cc1)c1cccc(SC)c1` [I_440, (S)-2-(2-Benzoylphenylamino)-3-(4-{2-[but-2-(E)-enoyl-(3-methylsulfanylphenyl)amino]ethoxy}-phenyl)propionic acid], on GST-hPPARγ2, the Ki lay in the range of 500 to 1500 nM. As for `O=C(c1ccccc1)c1ccccc1N[C@@H](Cc1ccc(OCCN(Cc2cccs2)c2ccccc2)cc1)C(=O)O` [I_467, (S)-2-(2-Benzoylphenylamino)-3-{4-[2-(phenylthiophen-2-ylmethylamino)-ethoxy]phenyl}propionic acid], at GST-hPPARγ2, the Ki is less than 500 nM. Same read-out and setting: next, `COCCC(=O)N(CCOc1ccc(C[C@H](Nc2ccccc2C(=O)c2ccccc2)C(=O)O)cc1)Cc1ccccc1` [I_469, (S)-2-(2-Benzoylphenylamino)-3-(4-{2-[benzyl-(3-methoxypropionyl)-amino]ethoxy}phenyl)propionic acid]: 500 to 1500 nM.
